Values quoted from earlier work, collected in paper PMC6861001 (Chemistry (Weinheim an der Bergstrasse, Germany), 2019).

## N[C@@H](C[SeH])C(=O)O [Sec, selenocysteine]
  pKa of selenol group: ~5.2
  reduction potential E0: −386 mV
